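96-well plates; 48 h exposure; 5 concentrations. Endpoints by linear interpolation between flanking doses. Not reached: highest tested concentration assigned. At the GI50, growth is halved.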 Active and inactive are the calls of the source. Cut-off read from the data, not from the text of the source: active = GI50 up to about 1.1 µM and inactive = higher.
Assays:
Test in all cases: DTP human tumour cell line panel, 48 h
RPMI-8226 = tested on: RPMI-8226
MCF7 = tested on: MCF7
HT-29 = tested on: HT-29
CCRF-CEM = tested on: CCRF-CEM
UACC-257 = tested on: UACC-257
OVCAR-4 = tested on: OVCAR-4
SF-539 = tested on: SF-539
NCI/ADR-RES = tested on: NCI/ADR-RES
SNB-19 = tested on: SNB-19
HOP-62 = tested on: HOP-62
BT-549 = tested on: BT-549
T47D = tested on: T47D
SR = tested on: SR
786-0 = tested on: 786-0
HCT-15 = tested on: HCT-15
SW-620 = tested on: SW-620
SF-295 = tested on: SF-295
RXF 393 = tested on: RXF 393
Malme-3M = tested on: Malme-3M
NCI-H522 = tested on: NCI-H522

| Compound | GI50 (RPMI-8226) | GI50 (MCF7) | GI50 (HT-29) | GI50 (CCRF-CEM) | GI50 (UACC-257) | GI50 (OVCAR-4) | GI50 (SF-539) | GI50 (NCI/ADR-RES) | GI50 (SNB-19) | GI50 (HOP-62) | GI50 (BT-549) | GI50 (T47D) | GI50 (SR) | GI50 (786-0) | GI50 (HCT-15) | GI50 (SW-620) | GI50 (SF-295) | GI50 (RXF 393) | GI50 (Malme-3M) | GI50 (NCI-H522) |
| --- | --- | --- | --- | --- | --- | --- | --- | --- | --- | --- | --- | --- | --- | --- | --- | --- | --- | --- | --- | --- |
| CCNC(=S)NNC(=O)c1csc(NC(=S)NC2CCCCC2)n1 | 11.7 µM (inactive) | 4.69 µM (inactive) | > 100 µM (inactive) | 4.55 µM (inactive) | 4.79 µM (inactive) | 7.91 µM (inactive) | 6.17 µM (inactive) | 14.4 µM (inactive) | 37.5 µM (inactive) | 10.6 µM (inactive) | 15.2 µM (inactive) | 11.7 µM (inactive) | 3.5 µM (inactive) | 6.52 µM (inactive) | 1.67 µM | 5.27 µM (inactive) | 10.2 µM (inactive) | – | – | – |
| C=C1CC(c2ccc(OCCCN3C(=O)c4ccccc4C3=O)c(OC)c2)OC1=O (stereo not drawn) | 0.849 µM (active) | 0.218 µM (active) | 2.58 µM (inactive) | 1.06 µM (active) | 3.63 µM (inactive) | 1.06 µM (active) | 0.303 µM (active) | 17.9 µM (inactive) | 11.9 µM (inactive) | 15.6 µM (inactive) | – | 2.56 µM (inactive) | 0.973 µM (active) | 4.1 µM (inactive) | 2.71 µM | 1.56 µM (inactive) | 11.2 µM (inactive) | 1.95 µM (inactive) | 3.27 µM (inactive) | 0.514 µM (active) |
| COC1C(O)CC(OC2C(C)OC(Oc3cc(O)c4c(O)c5c(cc4c3)C[C@@H]([C@H](OC)C(=O)[C@@H](O)[C@@H](C)O)[C@H](OC3CC(OC4CC(OC6CC(C)(O)C(O)C(C)O6)C(O)C(C)O4)C(O)C(C)O3)C5=O)CC2OC(C)=O)OC1C (stereo partly drawn) | 60.8 µM (inactive) | 24.4 µM (inactive) | 65.2 µM (inactive) | > 100 µM (inactive) | – | > 100 µM (inactive) | 38.6 µM (inactive) | > 100 µM (inactive) | 33.2 µM (inactive) | > 100 µM (inactive) | > 100 µM (inactive) | 66.5 µM (inactive) | 63.5 µM (inactive) | > 100 µM (inactive) | > 100 µM | > 100 µM (inactive) | > 10 µM (inactive) | – | 3.47 µM (inactive) | 39.1 µM (inactive) |
| Cc1ccc(Sc2ccccc2C23OC(C)(C4C(=O)N(c5ccccc5)C(=O)C42)N(C)C3=O)cc1 (stereo not drawn) | – | – | > 100 µM (inactive) | > 100 µM (inactive) | > 100 µM (inactive) | 84.5 µM (inactive) | > 100 µM (inactive) | > 100 µM (inactive) | > 100 µM (inactive) | – | > 100 µM (inactive) | > 100 µM (inactive) | > 100 µM (inactive) | 96.6 µM (inactive) | > 100 µM | > 100 µM (inactive) | > 100 µM (inactive) | 85.7 µM (inactive) | 79.6 µM (inactive) | > 100 µM (inactive) |
| COC(=O)C1(C(=O)OC)Cc2ccc(OC)cc2C2=C1C(=O)c1ccccc1C2=O | – | 2.55 µM (inactive) | 14.4 µM (inactive) | 2.15 µM (inactive) | 2.48 µM (inactive) | 1.77 µM (inactive) | 16.6 µM (inactive) | 2.69 µM (inactive) | 16.9 µM (inactive) | 7.08 µM (inactive) | 19.1 µM (inactive) | 1.51 µM (inactive) | 3.54 µM (inactive) | 4.75 µM (inactive) | 10.7 µM | 6.47 µM (inactive) | 3.77 µM (inactive) | – | 10.8 µM (inactive) | 3.45 µM (inactive) |
| CN(C)CS/C(N)=N\C(O)C(Cl)(Cl)Cl (stereo not drawn) | – | – | > 100 µM (inactive) | 51.6 µM (inactive) | > 100 µM (inactive) | > 100 µM (inactive) | – | > 100 µM (inactive) | > 100 µM (inactive) | > 100 µM (inactive) | > 100 µM (inactive) | > 100 µM (inactive) | 82.2 µM (inactive) | > 100 µM (inactive) | > 100 µM | > 100 µM (inactive) | > 100 µM (inactive) | > 100 µM (inactive) | > 100 µM (inactive) | > 100 µM (inactive) |
| COc1cccc2c1C(=O)c1c(O)c3c(c(O)c1C2=O)C[C@@](O)(C(=O)CO)C[C@@H]3OC1CC(N)C(OC)C(C)O1 (stereo partly drawn) | 0.024 µM (active) | < 0.01 µM (active) | 0.0559 µM (active) | < 0.0146 µM (active) | 0.282 µM (active) | 0.458 µM (active) | 0.0421 µM (active) | – | 0.0452 µM (active) | 0.0234 µM (active) | 0.27 µM (active) | 0.23 µM (active) | < 0.0157 µM (active) | 0.0327 µM (active) | 1.98 µM | 0.0249 µM (active) | 0.0206 µM (active) | 0.19 µM (active) | 0.0532 µM (active) | 0.076 µM (active) |
| CCOC(=O)C1(C/C=C\CBr)CCCC1=O (stereo not drawn) | – | 11.5 µM (inactive) | 29.3 µM (inactive) | – | 39 µM (inactive) | 34.4 µM (inactive) | 24.6 µM (inactive) | 25.5 µM (inactive) | 38.3 µM (inactive) | 29.1 µM (inactive) | 30.3 µM (inactive) | 30.5 µM (inactive) | – | 32.3 µM (inactive) | 26.9 µM | 22.4 µM (inactive) | 60 µM (inactive) | 16.6 µM (inactive) | 48.1 µM (inactive) | 21.4 µM (inactive) |
| COc1cc(C2c3cc4c(c(O)c3C(=O)C3CCC(=O)N32)OCO4)cc(OC)c1OC (stereo not drawn) | 92.7 µM (inactive) | 77.1 µM (inactive) | 42.9 µM (inactive) | 31.3 µM (inactive) | > 100 µM (inactive) | > 100 µM (inactive) | 46.9 µM (inactive) | 89.1 µM (inactive) | > 100 µM (inactive) | 82.8 µM (inactive) | 32.7 µM (inactive) | 99.5 µM (inactive) | 44.8 µM (inactive) | 92.5 µM (inactive) | 48.8 µM | 45.9 µM (inactive) | 36.6 µM (inactive) | – | 39.9 µM (inactive) | 16.9 µM (inactive) |
| C/C(=N\O)c1ccc2ccc3ccccc3c2c1 | 34.6 µM (inactive) | 41.1 µM (inactive) | 28.3 µM (inactive) | 51.3 µM (inactive) | 22.9 µM (inactive) | 23 µM (inactive) | 17.5 µM (inactive) | 31.3 µM (inactive) | 62.8 µM (inactive) | > 100 µM (inactive) | – | 56.6 µM (inactive) | 21.8 µM (inactive) | > 100 µM (inactive) | 28.9 µM | 30.6 µM (inactive) | 37.3 µM (inactive) | 34.3 µM (inactive) | 23.1 µM (inactive) | 29.9 µM (inactive) |
| N=C(N)N1CCC(N2CCOCC2)CC1 | > 100 µM (inactive) | > 100 µM (inactive) | > 100 µM (inactive) | > 100 µM (inactive) | > 100 µM (inactive) | > 100 µM (inactive) | > 100 µM (inactive) | > 100 µM (inactive) | > 100 µM (inactive) | > 100 µM (inactive) | – | > 100 µM (inactive) | > 100 µM (inactive) | > 100 µM (inactive) | > 100 µM | > 100 µM (inactive) | > 100 µM (inactive) | > 100 µM (inactive) | > 100 µM (inactive) | – |
| CC(=O)NC1C(OCc2ccccc2)OC(CO)C(O)C1OC(C)C(=O)NC(C(=O)NC(CCC(=O)NCCCNc1ccc([N+](=O)[O-])c2[nH]c3ccccc3c(=O)c12)C(N)=O)C(C)C (stereo not drawn) | – | > 100 µM (inactive) | > 100 µM (inactive) | > 100 µM (inactive) | > 100 µM (inactive) | > 100 µM (inactive) | > 100 µM (inactive) | > 100 µM (inactive) | > 100 µM (inactive) | > 100 µM (inactive) | > 100 µM (inactive) | > 100 µM (inactive) | – | > 100 µM (inactive) | > 100 µM | > 100 µM (inactive) | > 100 µM (inactive) | – | – | 91.6 µM (inactive) |
| O/N=N/c1ccc(Sc2ccc(/N=N/O)cn2)nc1 | – | > 100 µM (inactive) | > 100 µM (inactive) | > 100 µM (inactive) | > 100 µM (inactive) | > 100 µM (inactive) | > 100 µM (inactive) | > 100 µM (inactive) | > 100 µM (inactive) | > 100 µM (inactive) | > 100 µM (inactive) | > 100 µM (inactive) | > 100 µM (inactive) | > 100 µM (inactive) | > 100 µM | > 100 µM (inactive) | > 100 µM (inactive) | – | – | > 100 µM (inactive) |
| COc1ccc(Nc2nc(N)c(C(=O)c3ccc(Cl)cc3)s2)cc1 | < 0.01 µM (active) | 0.356 µM (active) | < 0.0108 µM (active) | < 0.01 µM (active) | 42.9 µM (inactive) | 0.121 µM (active) | < 0.01 µM (active) | < 0.01 µM (active) | < 0.01 µM (active) | < 0.01 µM (active) | < 0.0135 µM (active) | 24 µM (inactive) | – | < 0.01 µM (active) | 0.0439 µM | < 0.01 µM (active) | < 0.01 µM (active) | < 0.01 µM (active) | – | < 0.01 µM (active) |
| Nc1nc(F)nc2c1ncn2C1OC(CO)C(O)C1O (stereo not drawn) | > 100 µM (inactive) | 57.7 µM (inactive) | > 100 µM (inactive) | 0.344 µM (active) | > 90.8 µM (inactive) | > 100 µM (inactive) | > 100 µM (inactive) | 3.78 µM (inactive) | 19.2 µM (inactive) | 5.12 µM (inactive) | 57.5 µM (inactive) | > 70 µM (inactive) | – | 38.1 µM (inactive) | > 75 µM | 69 µM (inactive) | > 100 µM (inactive) | > 81.8 µM (inactive) | 32.5 µM (inactive) | 32.7 µM (inactive) |

From ChEMBL document CHEMBL1201862, “PubChem BioAssay data set” (2004)
